In ChEMBL document CHEMBL4340561, “Application of the concept of oxime library screening by mass spectrometry (MS) binding assays to pyrrolidine-3-carboxylic acid derivatives as potential inhibitors of γ-aminobutyric acid transporter 1 (GAT1)” (Bioorg Med Chem, 2019):

What was measured:
[1] = target: T1, Sodium- and chloride-dependent GABA transporter 1 (Mus musculus, UniProt P31648); test: Inhibition of mouse GAT1 expressed in HEK293 cells assessed as reduction in [3H]GABA uptake preincubated for 25 mins followed by [3H]GABA addition and measured after 4 mins by liquid scintillation counting method; format: cell-based
[2] = target: T1, Sodium- and chloride-dependent GABA transporter 1; test: Inhibition of NO711 binding to mouse GAT1 expressed in HEK293 cell membranes assessed as reduction in NO711 binding at incubated for 4 hrs in presence of NO711 by LC-ESI-MS/MS analysis relative to control
[3] = target: T2, GABA transporter 4 (Mus musculus, UniProt P31650); test: Inhibition of mouse GAT4 expressed in HEK293 cells assessed as reduction in [3H]GABA uptake preincubated for 25 mins followed by [3H]GABA addition and measured after 4 mins by liquid scintillation counting method; format: cell-based
T2 sequence (P31650 whole entry): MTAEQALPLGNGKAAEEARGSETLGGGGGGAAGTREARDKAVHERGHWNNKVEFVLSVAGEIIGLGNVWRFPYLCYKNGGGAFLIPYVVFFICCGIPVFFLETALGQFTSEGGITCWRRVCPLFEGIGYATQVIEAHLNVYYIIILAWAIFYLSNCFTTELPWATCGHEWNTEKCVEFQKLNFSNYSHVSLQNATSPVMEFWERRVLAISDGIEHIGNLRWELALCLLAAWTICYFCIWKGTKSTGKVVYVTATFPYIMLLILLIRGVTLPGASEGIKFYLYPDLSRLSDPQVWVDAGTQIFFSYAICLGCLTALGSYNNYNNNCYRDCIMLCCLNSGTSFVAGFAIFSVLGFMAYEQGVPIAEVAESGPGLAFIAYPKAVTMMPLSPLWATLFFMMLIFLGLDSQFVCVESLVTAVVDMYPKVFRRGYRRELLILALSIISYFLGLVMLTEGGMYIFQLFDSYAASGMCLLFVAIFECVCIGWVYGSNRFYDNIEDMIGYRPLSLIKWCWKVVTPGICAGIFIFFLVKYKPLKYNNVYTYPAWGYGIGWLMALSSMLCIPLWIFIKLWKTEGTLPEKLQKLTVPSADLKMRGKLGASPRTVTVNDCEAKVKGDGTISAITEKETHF

[4] = target: T3, GABA transporter 4 (Mus musculus) (UniProt P31650); test: Inhibition of mouse GAT4 expressed in HEK293 cells assessed as remaining [3H]GABA uptake at 100 uM preincubated for 25 mins followed by [3H]GABA addition and measured after 4 mins by liquid scintillation counting method; format: cell-based
T3 sequence (whole entry): T2 sequence (P31650 whole entry)

[5] = test system: Sodium- and chloride-dependent betaine transporter (Mus musculus); test: Inhibition of mouse GAT2 expressed in HEK293 cells assessed as remaining [3H]GABA uptake at 100 uM preincubated for 25 mins followed by [3H]GABA addition and measured after 10 mins by liquid scintillation counting method relative to control
[6] = test system: Sodium- and chloride-dependent GABA transporter 2 (Mus musculus); test: Inhibition of mouse GAT3 expressed in HEK293 cells assessed as remaining [3H]GABA uptake at 100 uM preincubated for 25 mins followed by [3H]GABA addition and measured after 4 mins by liquid scintillation counting method

With `COc1cccc(F)c1-c1ccccc1/C=N/OCCN1CCC(C(=O)O)C1` (stereo not given) the IC50 [1] was 1910 nM, the Ki [2] was 407 nM and the IC50 [3] was no less than 100000 nM. The Activity [4] was 89%, the Activity [5] was 86% and the Activity [6] was 93%.
Work on `O=C(O)C1=CCCN(CCON=C(c2ccccc2)c2ccccc2)C1` yielded a Kd [2] of 26.5 nM.
Work on `O=C(O)C1CCNC1` (stereo not given) yielded an IC50 [1] of 67600 nM.
In the case of `O=C(O)CC1CCNC1` (stereo not given), the IC50 [1] is reported as 4070 nM.
In the case of `O=C(O)C1CCN(CCO/N=C/c2ccccc2-c2ccc(Cl)cc2Cl)C1` (stereo not given), the IC50 [1] is reported as 2290 nM, the Ki [2] is reported as 389 nM and the IC50 [3] is reported as no less than 100000 nM. For the same compound, the Activity [4] was 56% and the Activity [6] was 62%.
In the case of `O=C(O)C1CCN(CCO/N=C/c2ccccc2-c2ccc(F)cc2Cl)C1` (stereo not given), the IC50 [1] is reported as 4790 nM, the Ki [2] is reported as 692 nM and the IC50 [3] is reported as no less than 100000 nM. The Activity [4] was 66%, the Activity [5] was 52% and the Activity [6] was 75%.
